Several values for one entry are separate records, joined by “and”; a condition that tells them apart may be missing. Equal entries are not always repeated. ± gives the expanded uncertainty stated by the source.
Legend:
[1] = 298.15 K; 101.33 kPa; Liquid; Vibrating tube method
[2] = excess molar enthalpy (molar enthalpy of mixing); xn = mol fraction of the nth substance listed

## CC1CCCCC1 [methylcyclohexane]
[1]
  mass density: 764.96 ± 0.42 kg/m3 and 764.97 ± 0.18 kg/m3

## CC1CCCCC1 [methylcyclohexane] + CN(C)C=O
[2]; 298.15 K, 101.33 kPa, Liquid, x1 = 0.031
  excess molar enthalpy: 0.0593 ± 0.00182 kcal/mol
[2]; 298.15 K, 101.33 kPa, Liquid, x1 = 0.0633
  excess molar enthalpy: 0.104 ± 0.00287 kcal/mol
[2]; 298.15 K, 101.33 kPa, Liquid, x1 = 0.0969
  excess molar enthalpy: 0.162 ± 0.0043 kcal/mol
[2]; 298.15 K, 101.33 kPa, Liquid, x1 = 0.132
  excess molar enthalpy: 0.209 ± 0.00526 kcal/mol
[2]; 298.15 K, 101.33 kPa, Liquid, x1 = 0.924
  excess molar enthalpy: 0.17 ± 0.0043 kcal/mol
[2]; 298.15 K, 101.33 kPa, Liquid, x1 = 0.9274
  excess molar enthalpy: 0.163 ± 0.0043 kcal/mol
[2]; 298.15 K, 101.33 kPa, Liquid, x1 = 0.9305
  excess molar enthalpy: 0.159 ± 0.00406 kcal/mol
[2]; 298.15 K, 101.33 kPa, Liquid, x1 = 0.9383
  excess molar enthalpy: 0.147 ± 0.00382 kcal/mol
[2]; 298.15 K, Liquid mixture 1, x1 = 0.1685
  excess molar enthalpy: 0.228 ± 0.00574 kcal/mol
[2]; 298.15 K, Liquid mixture 1, x1 = 0.2068
  excess molar enthalpy: 0.234 ± 0.00598 kcal/mol
[2]; 298.15 K, Liquid mixture 1, x1 = 0.2467
  excess molar enthalpy: 0.233 ± 0.00598 kcal/mol
[2]; 298.15 K, Liquid mixture 1, x1 = 0.2893
  excess molar enthalpy: 0.233 ± 0.00598 kcal/mol
[2]; 298.15 K, Liquid mixture 1, x1 = 0.3322
  excess molar enthalpy: 0.231 ± 0.00598 kcal/mol
[2]; 298.15 K, Liquid mixture 1, x1 = 0.3781
  excess molar enthalpy: 0.227 ± 0.00574 kcal/mol
[2]; 298.15 K, Liquid mixture 1, x1 = 0.3782
  excess molar enthalpy: 0.226 ± 0.00574 kcal/mol
[2]; 298.15 K, Liquid mixture 1, x1 = 0.4264
  excess molar enthalpy: 0.224 ± 0.00574 kcal/mol
[2]; 298.15 K, Liquid mixture 1, x1 = 0.4771
  excess molar enthalpy: 0.221 ± 0.00574 kcal/mol
[2]; 298.15 K, Liquid mixture 1, x1 = 0.5304
  excess molar enthalpy: 0.218 ± 0.0055 kcal/mol
[2]; 298.15 K, Liquid mixture 1, x1 = 0.5867
  excess molar enthalpy: 0.215 ± 0.0055 kcal/mol
[2]; 298.15 K, Liquid mixture 1, x1 = 0.646
  excess molar enthalpy: 0.212 ± 0.00526 kcal/mol
[2]; 298.15 K, Liquid mixture 1, x1 = 0.7087
  excess molar enthalpy: 0.208 ± 0.00526 kcal/mol
[2]; 298.15 K, Liquid mixture 1, x1 = 0.7751
  excess molar enthalpy: 0.204 ± 0.00526 kcal/mol
[2]; 298.15 K, Liquid mixture 1, x1 = 0.8455
  excess molar enthalpy: 0.199 ± 0.00502 kcal/mol
[2]; 298.15 K, Liquid mixture 1, x1 = 0.9204
  excess molar enthalpy: 0.179 ± 0.00454 kcal/mol
[2]; 313.15 K, 101.33 kPa, Liquid, x1 = 0.031
  excess molar enthalpy: 0.058 ± 0.00184 kcal/mol
[2]; 313.15 K, 101.33 kPa, Liquid, x1 = 0.0634
  excess molar enthalpy: 0.114 ± 0.00311 kcal/mol
[2]; 313.15 K, 101.33 kPa, Liquid, x1 = 0.097
  excess molar enthalpy: 0.166 ± 0.0043 kcal/mol
[2]; 313.15 K, 101.33 kPa, Liquid, x1 = 0.1321
  excess molar enthalpy: 0.215 ± 0.0055 kcal/mol
[2]; 313.15 K, 101.33 kPa, Liquid, x1 = 0.1687
  excess molar enthalpy: 0.26 ± 0.00669 kcal/mol
[2]; 313.15 K, 101.33 kPa, Liquid, x1 = 0.2069
  excess molar enthalpy: 0.298 ± 0.00741 kcal/mol
[2]; 313.15 K, 101.33 kPa, Liquid, x1 = 0.9204
  excess molar enthalpy: 0.182 ± 0.00478 kcal/mol
[2]; 313.15 K, 101.33 kPa, Liquid, x1 = 0.9383
  excess molar enthalpy: 0.154 ± 0.00406 kcal/mol
[2]; 313.15 K, 101.33 kPa, Liquid, x1 = 0.9552
  excess molar enthalpy: 0.118 ± 0.00335 kcal/mol
[2]; 313.15 K, Liquid mixture 1, x1 = 0.2469
  excess molar enthalpy: 0.315 ± 0.00789 kcal/mol
[2]; 313.15 K, Liquid mixture 1, x1 = 0.2887
  excess molar enthalpy: 0.319 kcal/mol and 0.317 kcal/mol
[2]; 313.15 K, Liquid mixture 1, x1 = 0.3325
  excess molar enthalpy: 0.317 ± 0.00789 kcal/mol
[2]; 313.15 K, Liquid mixture 1, x1 = 0.3784
  excess molar enthalpy: 0.316 ± 0.00789 kcal/mol
[2]; 313.15 K, Liquid mixture 1, x1 = 0.4267
  excess molar enthalpy: 0.314 ± 0.00789 kcal/mol
[2]; 313.15 K, Liquid mixture 1, x1 = 0.4773
  excess molar enthalpy: 0.312 ± 0.00789 kcal/mol
[2]; 313.15 K, Liquid mixture 1, x1 = 0.5307
  excess molar enthalpy: 0.308 ± 0.00765 kcal/mol
[2]; 313.15 K, Liquid mixture 1, x1 = 0.5869
  excess molar enthalpy: 0.306 ± 0.00765 kcal/mol
[2]; 313.15 K, Liquid mixture 1, x1 = 0.6462
  excess molar enthalpy: 0.304 ± 0.00765 kcal/mol
[2]; 313.15 K, Liquid mixture 1, x1 = 0.7089
  excess molar enthalpy: 0.301 ± 0.00765 kcal/mol
[2]; 313.15 K, Liquid mixture 1, x1 = 0.7753
  excess molar enthalpy: 0.297 ± 0.00741 kcal/mol
[2]; 313.15 K, Liquid mixture 1, x1 = 0.8457
  excess molar enthalpy: 0.276 ± 0.00693 kcal/mol

## CC1CCCCC1 [methylcyclohexane] + CO
[2]; 298.15 K, 101.33 kPa, Liquid, x1 = 0.0166
  excess molar enthalpy: 0.0185 ± 0.00086 kcal/mol
[2]; 298.15 K, 101.33 kPa, Liquid, x1 = 0.0345
  excess molar enthalpy: 0.0357 ± 0.0012 kcal/mol
[2]; 298.15 K, 101.33 kPa, Liquid, x1 = 0.0537
  excess molar enthalpy: 0.052 ± 0.00155 kcal/mol
[2]; 298.15 K, 101.33 kPa, Liquid, x1 = 0.0743
  excess molar enthalpy: 0.066 ± 0.00186 kcal/mol
[2]; 298.15 K, 101.33 kPa, Liquid, x1 = 0.0967
  excess molar enthalpy: 0.0793 ± 0.00217 kcal/mol
[2]; 298.15 K, 101.33 kPa, Liquid, x1 = 0.121
  excess molar enthalpy: 0.0911 ± 0.00239 kcal/mol
[2]; 298.15 K, 101.33 kPa, Liquid, x1 = 0.859
  excess molar enthalpy: 0.101 ± 0.00263 kcal/mol
[2]; 298.15 K, 101.33 kPa, Liquid, x1 = 0.9056
  excess molar enthalpy: 0.0887 ± 0.00239 kcal/mol
[2]; 298.15 K, Liquid mixture 1, x1 = 0.1475
  excess molar enthalpy: 0.0996 ± 0.00263 kcal/mol
[2]; 298.15 K, Liquid mixture 1, x1 = 0.1764
  excess molar enthalpy: 0.103 ± 0.00263 kcal/mol
[2]; 298.15 K, Liquid mixture 1, x1 = 0.2082
  excess molar enthalpy: 0.104 ± 0.00263 kcal/mol
[2]; 298.15 K, Liquid mixture 1, x1 = 0.2411
  excess molar enthalpy: 0.105 ± 0.00287 kcal/mol
[2]; 298.15 K, Liquid mixture 1, x1 = 0.2432
  excess molar enthalpy: 0.105 ± 0.00287 kcal/mol
[2]; 298.15 K, Liquid mixture 1, x1 = 0.2819
  excess molar enthalpy: 0.105 ± 0.00287 kcal/mol
[2]; 298.15 K, Liquid mixture 1, x1 = 0.3251
  excess molar enthalpy: 0.106 ± 0.00287 kcal/mol
[2]; 298.15 K, Liquid mixture 1, x1 = 0.3736
  excess molar enthalpy: 0.106 ± 0.00287 kcal/mol
[2]; 298.15 K, Liquid mixture 1, x1 = 0.4283
  excess molar enthalpy: 0.107 ± 0.00287 kcal/mol
[2]; 298.15 K, Liquid mixture 1, x1 = 0.4907
  excess molar enthalpy: 0.108 ± 0.00287 kcal/mol
[2]; 298.15 K, Liquid mixture 1, x1 = 0.5623
  excess molar enthalpy: 0.108 ± 0.00287 kcal/mol
[2]; 298.15 K, Liquid mixture 1, x1 = 0.6453
  excess molar enthalpy: 0.109 ± 0.00287 kcal/mol
[2]; 298.15 K, Liquid mixture 1, x1 = 0.7429
  excess molar enthalpy: 0.111 ± 0.00287 kcal/mol
[2]; 298.15 K, Liquid mixture 1, x1 = 0.8061
  excess molar enthalpy: 0.109 ± 0.00287 kcal/mol
[2]; 313.15 K, 101.33 kPa, Liquid, x1 = 0.0166
  excess molar enthalpy: 0.02 ± 0.000908 kcal/mol
[2]; 313.15 K, 101.33 kPa, Liquid, x1 = 0.0343
  excess molar enthalpy: 0.0381 ± 0.00127 kcal/mol
[2]; 313.15 K, 101.33 kPa, Liquid, x1 = 0.0534
  excess molar enthalpy: 0.0559 ± 0.00165 kcal/mol
[2]; 313.15 K, 101.33 kPa, Liquid, x1 = 0.0741
  excess molar enthalpy: 0.0718 ± 0.00201 kcal/mol
[2]; 313.15 K, 101.33 kPa, Liquid, x1 = 0.0964
  excess molar enthalpy: 0.0868 ± 0.00237 kcal/mol
[2]; 313.15 K, 101.33 kPa, Liquid, x1 = 0.1206
  excess molar enthalpy: 0.101 ± 0.00263 kcal/mol
[2]; 313.15 K, 101.33 kPa, Liquid, x1 = 0.147
  excess molar enthalpy: 0.114 ± 0.00311 kcal/mol
[2]; 313.15 K, 101.33 kPa, Liquid, x1 = 0.1758
  excess molar enthalpy: 0.125 ± 0.00335 kcal/mol
[2]; 313.15 K, 101.33 kPa, Liquid, x1 = 0.2075
  excess molar enthalpy: 0.134 ± 0.00359 kcal/mol
[2]; 313.15 K, 101.33 kPa, Liquid, x1 = 0.2411
  excess molar enthalpy: 0.139 ± 0.00359 kcal/mol
[2]; 313.15 K, 101.33 kPa, Liquid, x1 = 0.2424
  excess molar enthalpy: 0.141 ± 0.00359 kcal/mol
[2]; 313.15 K, 101.33 kPa, Liquid, x1 = 0.7423
  excess molar enthalpy: 0.16 ± 0.00406 kcal/mol
[2]; 313.15 K, 101.33 kPa, Liquid, x1 = 0.8057
  excess molar enthalpy: 0.152 ± 0.00406 kcal/mol
[2]; 313.15 K, 101.33 kPa, Liquid, x1 = 0.8588
  excess molar enthalpy: 0.138 ± 0.00359 kcal/mol
[2]; 313.15 K, 101.33 kPa, Liquid, x1 = 0.9055
  excess molar enthalpy: 0.123 ± 0.00311 kcal/mol
[2]; 313.15 K, 101.33 kPa, Liquid, x1 = 0.941
  excess molar enthalpy: 0.108 ± 0.00287 kcal/mol
[2]; 313.15 K, Liquid mixture 1, x1 = 0.2812
  excess molar enthalpy: 0.145 ± 0.00382 kcal/mol
[2]; 313.15 K, Liquid mixture 1, x1 = 0.3244
  excess molar enthalpy: 0.147 ± 0.00382 kcal/mol
[2]; 313.15 K, Liquid mixture 1, x1 = 0.3728
  excess molar enthalpy: 0.15 ± 0.00382 kcal/mol
[2]; 313.15 K, Liquid mixture 1, x1 = 0.4275
  excess molar enthalpy: 0.154 ± 0.00406 kcal/mol
[2]; 313.15 K, Liquid mixture 1, x1 = 0.4898
  excess molar enthalpy: 0.157 ± 0.00406 kcal/mol
[2]; 313.15 K, Liquid mixture 1, x1 = 0.5615
  excess molar enthalpy: 0.16 ± 0.00406 kcal/mol
[2]; 313.15 K, Liquid mixture 1, x1 = 0.6446
  excess molar enthalpy: 0.164 ± 0.0043 kcal/mol

## CO [methanol]
[1]
  mass density: 786.55 ± 0.43 kg/m3

## CN(C)C=O [dimethylformamide]
[1]
  mass density: 943.81 ± 0.13 kg/m3 and 943.88 ± 0.1 kg/m3

From the NIST ThermoML archive (doi:10.1021/je020135f)
